Measured values from patent US7563621B2, “Absorbing organic reagents into diagnostic test devices by formation of amine salt complexes” (Siemens Healhcare Diagnostics Inc, priority 2003, dated 2009).
“And” between values parts separate entries of the source, which are not always exact repeats. Equal entries are not always repeated. Structures can show the parent of a compound that is named as a salt.

What was measured:
[1] = target: T1, human serum albumin (HSA) (Homo sapiens, UniProt P02768); assay: Automated protein assay with pyrogallol red salts, 74 μM (Example 6); details: HSA 25 mg/dL; 10 minutes, 37° C; 900 nm baseline subtracted; Series #1 and #2
Method: The dilutor was programmed for reactions of 180 μL reagent+40 μL sample. […] The samples were phosphate buffered saline (blank), human serum albumin (HSA) 25 mg/dL, and other proteins (i.e., human IgG, […], and Lambda Light Chain) at 25 mg/dL. Absorbance data were collected on a Biotek, Powerwave X Microplate Absorbance reader using BioTek “KC Jr” software to determine the relative detection of the different proteins (i.e., HSA, human IgG, […], and Lambda Light Chain) using salts of pyrogallol red. Two sets of replicates of the different proteins were run. […] The protein response was determined by subtracting the phosphate buffered saline sample reaction result from the protein reaction result.

Tamm-Horsfall [2] = target: T2, Tamm-Horsfall (Homo sapiens, UniProt P07911); assay: as above; details: Series #1 and #2
Method: (§1) The dilutor was programmed for reactions of 180 μL reagent+40 μL sample. […] The samples were phosphate buffered saline (blank), human serum albumin (HSA) 25 mg/dL, and other proteins (i.e., human IgG, […], and Lambda Light Chain) at 25 mg/dL. Absorbance data were collected on a Biotek, Powerwave X Microplate Absorbance reader using BioTek “KC Jr” software to determine the relative detection of the different proteins (i.e., HSA, human IgG, […], and Lambda Light Chain) using salts of pyrogallol red. Two sets of replicates of the different proteins were run. […] The protein response was determined by subtracting the phosphate buffered saline sample reaction result from the protein reaction result. […] The results for protein equivalence of the non-albumin proteins were expressed as a percentage of the protein colorimetric response to HSA as shown in Table 11 below.

Lambda Light Chain [3] = assay: as above; details: Series #1 and #2; for Percent Detection as Percentage of HSA Detection: Lambda Light Chain
Method: as §1

human IgG [4] = assay: as above; details: Series #1 and #2
Method: as §1

[5] = Butanol/water partitioning of pyrogallol red dye salts (Example 3); format: physicochemical; details: 276 nm; for Absorbance of Dye Salt in Butanol: butanol layer; for Absorbance of Dye Salt in Water: water layer
Method: Extractions were then performed in Mixxor extractors.

Tamm-Horsfall [6] = target: T2, Tamm-Horsfall; assay: Automated protein assay with pyrogallol red salts, 54 μM (Example 5); details: 10 minutes; for 600 nm Absorbance Level, salt with Protein / 900 nm Absorbance Background Level, salt with Protein / Reaction Absorbance at 600 nm − Absorbance at 900 nm (net protein response, protein minus non-protein sample): Tamm-Horsfall 25 mg/dL; for 600 nm Absorbance Level, salt with Protein / 900 nm Absorbance Background Level, salt with Protein / 600 nm Absorbance Level, salt in Phosphate Buffered Saline (No Protein) / 900 nm Absorbance Background Level, salt in Phosphate Buffered Saline (No Protein): 37° C, replicates #1 and #2; for Reaction Absorbance at 600 nm − Absorbance at 900 nm (net protein response, protein minus non-protein sample): averaged data; for 600 nm Absorbance Level, salt in Phosphate Buffered Saline (No Protein) / 900 nm Absorbance Background Level, salt in Phosphate Buffered Saline (No Protein): Tamm-Horsfall
Method: (§2) The dilutor was programmed for reactions of 180 μL reagent+40 μL sample. […] The samples were phosphate buffered saline (blank), human serum albumin (HSA) 25 mg/dL, and other proteins (i.e., human IgG, […], and Lambda Light Chain) at 25 mg/dL. Absorbance rate data were collected on a Biotek, Powerwave X Microplate Absorbance reader using BioTek “KC Jr” software to determine the relative detection of the different proteins (i.e., HSA, human IgG, […], and Lambda Light Chain) using salts of pyrogallol red. Two sets of replicates of the different proteins were run. […] The protein response was determined by subtracting the phosphate buffered saline sample reaction result from the protein reaction result.

Lambda Light Chain [7] = assay: as above; details: Lambda Light Chain 25 mg/dL, 10 minutes, averaged data
Method: as §2

human IgG [8] = assay: as above; details: IgG 25 mg/dL, 10 minutes, averaged data
Method: as §2

[9] = target: T1, human serum albumin (HSA); assay: as above; details: 10 minutes; for 600 nm Absorbance Level, salt with Protein / 900 nm Absorbance Background Level, salt with Protein / Reaction Absorbance at 600 nm − Absorbance at 900 nm (net protein response, protein minus non-protein sample): HSA 25 mg/dL; for 600 nm Absorbance Level, salt with Protein / 900 nm Absorbance Background Level, salt with Protein / 600 nm Absorbance Level, salt in Phosphate Buffered Saline (No Protein) / 900 nm Absorbance Background Level, salt in Phosphate Buffered Saline (No Protein): 37° C, replicates #1 and #2; for Reaction Absorbance at 600 nm − Absorbance at 900 nm (net protein response, protein minus non-protein sample): averaged data; for 600 nm Absorbance Level, salt in Phosphate Buffered Saline (No Protein) / 900 nm Absorbance Background Level, salt in Phosphate Buffered Saline (No Protein): HSA
Method: as §2

T1 sequence (P02768 25-609): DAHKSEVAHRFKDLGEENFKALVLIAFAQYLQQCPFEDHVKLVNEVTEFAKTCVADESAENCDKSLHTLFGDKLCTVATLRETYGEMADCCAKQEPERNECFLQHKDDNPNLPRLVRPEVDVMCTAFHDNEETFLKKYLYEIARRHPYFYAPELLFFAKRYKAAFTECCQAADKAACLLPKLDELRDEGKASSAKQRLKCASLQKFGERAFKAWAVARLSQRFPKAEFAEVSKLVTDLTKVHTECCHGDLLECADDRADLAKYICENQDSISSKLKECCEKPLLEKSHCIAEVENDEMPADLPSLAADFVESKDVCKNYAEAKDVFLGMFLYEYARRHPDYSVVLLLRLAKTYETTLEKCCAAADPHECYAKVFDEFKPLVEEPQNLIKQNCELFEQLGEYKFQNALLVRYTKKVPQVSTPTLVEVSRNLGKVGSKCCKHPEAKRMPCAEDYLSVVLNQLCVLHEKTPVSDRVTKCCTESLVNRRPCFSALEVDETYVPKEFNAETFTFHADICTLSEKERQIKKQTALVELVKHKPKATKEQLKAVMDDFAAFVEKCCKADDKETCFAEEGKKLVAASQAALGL

SMILES: O=c1ccc2c(-c3ccccc3S(=O)(=O)O)c3ccc(O)c(O)c3oc-2c1O [Sodium Pyrogallol Red Salt, pyrogallol red, reference compound]
- average net absorbance at 600 nm after subtracting PBS sample reaction result [1]: 0.0563 and 0.0536
- average net absorbance at 600 nm after subtracting PBS sample reaction result (Tamm-Horsfall [2]; Tamm-Horsfall 25 mg/dL, 10 minutes, 37° C, 900 nm baseline subtracted): 0.0141 and 0.0118
- Percent Detection as Percentage of HSA Detection (Tamm-Horsfall [2]; Tamm-Horsfall): 26% and 21%
- average net absorbance at 600 nm after subtracting PBS sample reaction result (Lambda Light Chain [3]; Lambda Light Chain 25 mg/dL, 10 minutes, 37° C, 900 nm baseline subtracted): 0.0041 and 0.0037
- Percent Detection as Percentage of HSA Detection (Lambda Light Chain [3]): 8% and 7%
- Percent Detection as Percentage of HSA Detection (Lambda Light Chain [3]; listed as sodium): 8%
- average net absorbance at 600 nm after subtracting PBS sample reaction result (human IgG [4]; IgG 25 mg/dL, 10 minutes, 37° C, 900 nm baseline subtracted): 0.0311 and 0.0318
- Percent Detection as Percentage of HSA Detection (human IgG [4]; IgG): 58% and 56%
- Ratio of Butanol Absorbance to Water Absorbance ([5]; Sodium Hydroxide): 0.10
- Absorbance of Dye Salt in Butanol ([5]; Sodium Hydroxide): 0.034
- Absorbance of Dye Salt in Water ([5]; Sodium Hydroxide): 0.338
- 600 nm Absorbance Level, salt with Protein (Tamm-Horsfall [6]): 0.203 and 0.204
- 900 nm Absorbance Background Level, salt with Protein (Tamm-Horsfall [6]): 0.036
- Reaction Absorbance at 600 nm − Absorbance at 900 nm (net protein response, protein minus non-protein sample) (Tamm-Horsfall [6]; listed as Sodium Salt): 0.007
- 600 nm Absorbance Level, salt in Phosphate Buffered Saline (No Protein) (Tamm-Horsfall [6]): 0.196 and 0.198
- 900 nm Absorbance Background Level, salt in Phosphate Buffered Saline (No Protein) (Tamm-Horsfall [6]): 0.036 and 0.035
- Reaction Absorbance at 600 nm − Absorbance at 900 nm (net protein response, protein minus non-protein sample) (Lambda Light Chain [7]; listed as Sodium Salt): 0.006
- Reaction Absorbance at 600 nm − Absorbance at 900 nm (net protein response, protein minus non-protein sample) (human IgG [8]; listed as Sodium Salt): 0.008
- 600 nm Absorbance Level, salt with Protein [9]: 0.211
- 900 nm Absorbance Background Level, salt with Protein [9]: 0.035
- Reaction Absorbance at 600 nm − Absorbance at 900 nm (net protein response, protein minus non-protein sample) ([9]; listed as Sodium Salt): 0.015
- 600 nm Absorbance Level, salt in Phosphate Buffered Saline (No Protein) [9]: 0.197 and 0.196
- 900 nm Absorbance Background Level, salt in Phosphate Buffered Saline (No Protein) [9]: 0.035

SMILES: O=c1ccc2c(-c3ccccc3S(=O)(=O)O)c3ccc(O)c(O)c3oc-2c1O [Trioctylamine Pyrogallol Red Salt, pyrogallol red]
- Ratio of Butanol Absorbance to Water Absorbance ([5]; Trioctylamine): 3.17
- Absorbance of Dye Salt in Butanol ([5]; Trioctylamine): 0.155
- Absorbance of Dye Salt in Water ([5]; Trioctylamine): 0.049
- 600 nm Absorbance Level, salt with Protein (Tamm-Horsfall [6]): 0.454 and 0.45
- 900 nm Absorbance Background Level, salt with Protein (Tamm-Horsfall [6]): 0.085 and 0.084
- Reaction Absorbance at 600 nm − Absorbance at 900 nm (net protein response, protein minus non-protein sample) (Tamm-Horsfall [6]; listed as Trioctylamine Salt): −0.034
- 600 nm Absorbance Level, salt in Phosphate Buffered Saline (No Protein) (Tamm-Horsfall [6]): 0.485 and 0.486
- 900 nm Absorbance Background Level, salt in Phosphate Buffered Saline (No Protein) (Tamm-Horsfall [6]): 0.081 and 0.082
- Reaction Absorbance at 600 nm − Absorbance at 900 nm (net protein response, protein minus non-protein sample) (Lambda Light Chain [7]; listed as Trioctylamine Salt): −0.042
- Reaction Absorbance at 600 nm − Absorbance at 900 nm (net protein response, protein minus non-protein sample) (human IgG [8]; listed as Trioctylamine Salt): −0.011
- 600 nm Absorbance Level, salt with Protein [9]: 0.454 and 0.464
- 900 nm Absorbance Background Level, salt with Protein [9]: 0.087 and 0.088
- Reaction Absorbance at 600 nm − Absorbance at 900 nm (net protein response, protein minus non-protein sample) ([9]; listed as Trioctylamine Salt): −0.021
- 600 nm Absorbance Level, salt in Phosphate Buffered Saline (No Protein) [9]: 0.476 and 0.483
- 900 nm Absorbance Background Level, salt in Phosphate Buffered Saline (No Protein) [9]: 0.082 and 0.081
